This is an account of results in US5486511A, “4-amino-17β-(cyclopropyloxy)androst-4-en-3-one, 4-amino-17β-(cyclopropylamino)androst-4-en-3-one and related compounds as C17-20 lyase and 5α-reductase” (Merrell Dow Pharmaceuticals Inc., priority 1994, dated 1996).

In assay [1] the target is T1, cynomolgus monkey C17,20 lyase (Macaca fascicularis, UniProt Q2XVA1).
T1 construct: microsomes were isolated from human, cynomolgus monkey, dog, rat or athymic nude mouse testicular tissue; from tissue; host or cells: cynomolgus monkey testis microsomes
T1 sequence (Q2XVA1 1-508): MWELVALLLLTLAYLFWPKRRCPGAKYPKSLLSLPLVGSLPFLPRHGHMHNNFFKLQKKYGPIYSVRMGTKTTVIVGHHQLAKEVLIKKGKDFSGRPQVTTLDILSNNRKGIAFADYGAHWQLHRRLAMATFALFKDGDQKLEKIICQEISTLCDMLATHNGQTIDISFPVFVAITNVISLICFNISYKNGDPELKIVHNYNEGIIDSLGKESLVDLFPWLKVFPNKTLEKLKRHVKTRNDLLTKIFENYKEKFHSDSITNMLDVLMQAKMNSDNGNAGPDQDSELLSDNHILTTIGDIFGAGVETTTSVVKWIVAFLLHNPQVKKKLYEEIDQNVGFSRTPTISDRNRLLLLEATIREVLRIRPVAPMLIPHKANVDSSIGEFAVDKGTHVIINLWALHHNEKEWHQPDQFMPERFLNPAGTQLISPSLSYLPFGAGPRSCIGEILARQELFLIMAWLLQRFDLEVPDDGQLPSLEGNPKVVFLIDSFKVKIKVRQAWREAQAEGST
The assay can be described thus: Inhibition of cynomolgus monkey steroid C17,20 lyase (testicular microsomes), time dependent, Kitz-Wilson. The format is biochemical. How it is done:
The activity of the present compounds as inhibitors of steroid C17,20 lyase was established using microsomal preparations of the steroid C17,20 lyase enzyme from human or laboratory animal testes. Human testes used for this purpose were obtained from therapeutic orchiectomies. Specifically, microsomes were isolated from human, cynomolgus monkey, dog, rat or athymic nude mouse testicular tissue. The compound to be tested was dissolved in dimethyl sulfoxide and diluted in 0.05M potassium phosphate buffer to give the desired concentrations of the test compound. The potassium phosphate buffer was at pH 7.4 for the human, monkey and dog lyase assays and at pH 7.2 for the rat and athymic nude mouse lyase assays. Assays also contained 1 mM NADPH, 5 mM glucose-6-phosphate, 1 IU/ml glucose-6-phosphate dehydrogenase (an NADPH regenerating system) and microsomal protein in a total volume of 0.2 mL. Control assays contained all components including dimethyl sulfoxide, but with no test compound. All assays were performed in duplicate. For determination of time dependent C17,20 lyase inactivation, the test compound was incubated with 20 to 60 μg/ml microsomal protein, buffer, and the NADPH regenerating system described above at 34° C. for 0 or 40 minutes. Aliquots (180 μl) were then removed and assayed for enzyme activity by addition to tritiated steroid substrate plus unlabeled steroid substrate to give a 200 μl total assay volume, and were subsequently incubated at 34° C. for 6 minutes. For determination of reversible inhibition by the test compound, the reaction was initiated by addition of substrate. The radiolabeled substrate used for human, cynomolgus monkey and dog lyase was [7-^3 H]-17α-hydroxypregnenolone, 11.2 Ci/mmole, 0.2 μCi total activity per assay. Unlabeled 17α-hydroxypregnenolone was added to give a total concentration of 1.0 μM or 0.3 μM for the human and monkey enzymes, and 0.08 μM for the canine enzyme. […] The radiolabeled substrate used for the rodent enzymes were [1,2-^3 H]-17α-hydroxyprogesterone (40-57 Ci/mmol; 0.2 μCi per assay). Unlabeled 17α-hydroxyprogesterone was added to give a total concentration of 0.1 μM for the rat enzyme (Km =0.1 μM) and 0.03 μM (Km =0.03 μM) for the athymic nude mouse enzyme. The total assay volume was 200 μl. The complete assay was incubated at 34° C. for 6 minutes. Each reaction was stopped by the addition of 5 ml of chloroform:methanol (2:1). […] Radioactivity in the steroid peaks was measured by a Radiomatic Model HS Flo-One detector.
(§1) The enzyme activity for each incubate was calculated from the percent conversion of substrate to products, and the results were expressed as percent inhibition of control. […] The Ki and kinact for time dependent inhibitors were determined by graphical analysis of Kitz-Wilson plots. […]

A further assay relates to rat lyase. The assay can be described thus: Inhibition of rat steroid C17,20 lyase (testicular microsomes). The conditions noted are these: rat; 0.1 μM; preincubation 40 min. In kind it is biochemical. How it is done:
(§2) The activity of the present compounds as inhibitors of steroid C17,20 lyase was established using microsomal preparations of the steroid C17,20 lyase enzyme from human or laboratory animal testes. Human testes used for this purpose were obtained from therapeutic orchiectomies. Specifically, microsomes were isolated from human, cynomolgus monkey, dog, rat or athymic nude mouse testicular tissue. The compound to be tested was dissolved in dimethyl sulfoxide and diluted in 0.05M potassium phosphate buffer to give the desired concentrations of the test compound. The potassium phosphate buffer was at pH 7.4 for the human, monkey and dog lyase assays and at pH 7.2 for the rat and athymic nude mouse lyase assays. Assays also contained 1 mM NADPH, 5 mM glucose-6-phosphate, 1 IU/ml glucose-6-phosphate dehydrogenase (an NADPH regenerating system) and microsomal protein in a total volume of 0.2 mL. Control assays contained all components including dimethyl sulfoxide, but with no test compound. All assays were performed in duplicate. […] Radioactivity in the steroid peaks was measured by a Radiomatic Model HS Flo-One detector.
as §1

The subject of assay [2] is human prostatic tumor xenographs (PC-82). Briefly: Inhibition of human prostatic tumor growth (PC-82 xenografts in athymic mice). The format is in vivo. How it is done: In this model, human prostatic tumor xenographs (PC-82) are grown in athymic mice. The tumors are serially transplantable, androgen-responsive, slow-growing (i.e. 20-30 days for tumor volume to double) and are moderately differentiated human prostatic adenocarcinoma. These tumors will regress following androgen ablation with a half-life of 18 days (van Weerden, W. M. et al., Prostate 23:149-164 (1993).
The above tumor model of androgen-dependent human prostatic cancer was utilized to evaluate 4-amino-17β-(cyclopropyloxy)androst-4-en-3-one for inhibition of prostatic tumor growth following daily oral treatment at 30 and 100 mg/kg/day (See Table 2). Two control groups were tested, including one which received only the delivery vehicle and another which were bilaterally castrated. Tumor volumes were measured three times per week using a digital caliper using the formula: V (mm^3)=d1 ×(d2)^2 /2 were d1 is the length and d2 the width. The relative percent change in tumor volume is based on the mean tumor volume of the vehicle control groups at week 0 being set equal to 100%.
(In xenograft studies the graft and the host belong to different species.)

The subject of the next assay is canine lyase. The assay can be described thus: Inhibition of canine steroid C17,20 lyase (testicular microsomes). The format is biochemical, dog. The following applies: canine; 1 μM; preincubation 40 min. As for the experimental part:
as §2, §1

The test system of the next assay is nude mouse lyase. Briefly: Inhibition of athymic nude mouse steroid C17,20 lyase (testicular microsomes). The format is biochemical. The conditions noted are these: nude mouse; 0.01 μM; preincubation 40 min. As for the experimental part:
as §2, §1

For the compound `C[C@]12CC[C@H]3[C@@H](C=CC4=C(N)C(=O)CC[C@@]43C)[C@@H]1CC[C@@H]2OC1CC1` [Compound 1, 4-Amino-17β-(cyclopropyloxy)androsta-4,6-dien-3-one], in assay [1], the Ki amounted to 339 nM and the kinact was found to be 0.0009 s⁻¹.

As for `C[C@]12CC[C@H]3[C@@H](CCC4=C(N)C(=O)CC[C@@]43C)[C@@H]1CC[C@@H]2OC1CC1` [Compound 2, 4-Amino-17β-(cyclopropyloxy)androst-4-en-3-one], the “% Inhibition” value in the assay with rat lyase came out at 70%; in the assay on canine lyase, 57%; in the assay on nude mouse lyase, 84%. The “Relative percent tumor volume compared to vehicle control at beginning of timed period” value in assay [2] (30 mg/kg/day oral, 0 weeks) is reported as 105%; in assay [2] (30 mg/kg/day oral, +2 weeks) it was 150%; in assay [2] (30 mg/kg/day oral, +4 weeks) it was 253%; in assay [2] (100 mg/kg/day oral, 0 weeks) it was 83%; in assay [2] (100 mg/kg/day oral, +2 weeks) it was 117%; in assay [2] (100 mg/kg/day oral, +4 weeks) it was 163%. In addition, the Tumor volume in assay [2] (30 mg/kg/day oral, 0 weeks) is reported as 541 ± 71 mm^3; in assay [2] (30 mg/kg/day oral, +2 weeks), 771 ± 108 mm^3; in assay [2] (30 mg/kg/day oral, +4 weeks), 1305 ± 309 mm^3; in assay [2] (100 mg/kg/day oral, 0 weeks), 426 ± 49 mm^3; in assay [2] (100 mg/kg/day oral, +2 weeks), 601 ± 66 mm^3; in assay [2] (100 mg/kg/day oral, +4 weeks), 840 ± 86 mm^3. The “Inhibition of human prostatic tumor growth (in words)” value in assay [2] (daily oral treatment) is recorded as “prolonged inhibition of human prostatic tumor growth”. This compound came in with a Ki in assay [1] of 286 nM. Further, the kinact in assay [1] came to 0.0007 s⁻¹.

Usually kinact stands for the maximal first-order rate at which the target is inactivated. By % Inhibition is commonly meant the share of the control response that was lost under treatment.
